Data as given in US5576433A, “Fluorescent calcium indicators targeted to specific intracellular environments” (priority 1994, dated 1996).
Read-outs that look alike come from different tables or passages of the source.

Experiments:
[1] = read-out: apparent Kd for EGTA (assumed), cited from earlier work
322 T lymphoma cells [2] = assay: Response of PE3 loaded cells to changes in intracellular calcium
[3] = Magnesium Kd of indicator (Table 1); type: binding
Method: (§1) The excitation spectrum was recorded of 1 μM FFP18 in 2.5 ml of 130 mM KCl, 20 mM NaCl, 1 mM EGTA, 10 mM MOPS, pH 7.05 at 37° C. Then 25 μl of the solution was replaced with 25 μl of a solution containing 1 μM of that same dye, 111.2 mM MgC12, 12.2 mM EGTA, 10 mM MOPS, pH 7.05. This exchange yielded 1 mM free Mg^2+ 0.2 and 5 mM free Mg^2+ were obtained by successively exchanging 25.25 and 76.53 μl of the original solution with that of the latter solution containing the high concentration of Mg^2+. Emission was collected at 490 nm for fura-PE3 and 485 nm for FFP18, 4 nm band pass, and excitation 5 nm band pass.
as §1, with “1 μM PE3 in 2.5” for “1 μM FFP18 in 2.5”, “1 μM PE3, 111.2 mM” for “1 μM of that same dye, 111.2 mM”, “mM free Mg^2+. The 2 and 5” for “mM free Mg^2+ 0.2 and 5”, “free Mg^2+ concentrations were obtained” for “free Mg^2+ were obtained”

[4] = pH sensitivity of the calcium dissociation constant (Table 2); type: binding; details: 100 mM KCl, 10 mM MOPS
Description: The calcium dissociation constant of BAPTA-like calcium chelators and indicators is strongly affected by electron withdrawing effects of substituents on the BAPTA aromatic rings. The zwitterionic indicators described herein each contain an ionizable amine. The difference in electron withdrawing effects of the ionized and unionized amine could potentially communicate to BAPTA, creating a situation were the calcium affinity varied with pH. The design of PE3 and FFP18 was aimed at minimizing or eliminating this possibility by insulating the ionizable amine from the BAPTA ring with an aliphatic spacer containing one or more carbons. To test the effectiveness of this design, the calcium Kd of PE3 and FFP18 was measured at different pH values and compared to the values obtained for fura-2. […] Thus, the aim of the test was to determine whether the piperazine amino group gives the indicator increased pH sensitivity.
On page 36 of U.S. Pat. No. 4,603,209 (Tsien, et. al., 1987 Aug. 25), R2 is claimed as H, CH3, F, Cl, Br and […]. The R2 of PE3 and FFP18 is none of these claimed in that patent.

[5] = Spectral properties (absorbance and fluorescence with and without calcium); type: physicochemical
[6] = Calcium Kd of indicator in solution (Table 1); type: binding
Method: Calcium concentration was varied by adjusting ratio of CaEGTA/EGTA, so that free calcium varied from less than 1 nM to 1 mM. During the titration, temperature was held constant at 37° C. by a circulating water bath and Mg^++ levels were held at a fixed concentration of 1 mM. The excitation spectra were recorded between 300 and 400 nm by a Photon Technology Intl. Alpha Scan fluorometer where the excitation band width was set 6 nm and the emission was collected at 485 nm with 4 nm band width. […] 1M K2 CaEGTA was added directly to the solution to incrementally increase free calcium.
Calcium concentration was varied by adjusting ratio of CaEGTA/EGTA so that free calcium varied from less than 1 nM to 1 mM. During the titration, temperature was held constant at 37° C. by a circulating water bath and Mg++ levels were held at a fixed concentration of 1 mM. The excitation spectra were recorded between 300 and 400 nm by a Photon Technology Intl. Alpha Scan fluorometer where the excitation band width was set 6 nm and the emission was collected at 485 nm with 4 nm band width. […] 1M K2 CaEGTA was added directly to the solution to incrementally increase free calcium.
^c 100 mM KCl, 10 mM MOPS, pH 7.3, 20° C.

322 T lymphoma cells [7] = assay: Leakage of indicator from loaded cells / drift of apparent baseline calcium; type: cell-based; details: for apparent baseline intracellular calcium / dye leakage (in words): cells loaded with AM ester 1 hour, HBSS with 1% fetal bovine serum
Method: The T cell lymphoma cell line was loaded with 1 mM fura-2/AM or 1 mM PE3/AM for 30 minutes. Afterwards, an aliquot of dye loaded cells were placed in a cuvette and the fluorescence at 360 nm was recorded. Then, 5 mM Ni^2+ was added to quench any indicator that was outside the cells. The remainder of the loaded cell suspension was incubated for 1 hour at 37° C. Then a second aliquot was removed placed in a cuvette together with 5 mM Ni^2+ and fluorescence recorded. The difference in fluorescence of Ni^2+ treated cells between the 0 hour time point and the one hour time point represents indicator that leaked out of the cells into the extracellular medium over the 1 hour incubation period.
A quantity of 322 T-lymphoma cells were loaded with either 1 mM fura-2/AM or 1 mM PE3/AM for 1 hour, washed and resuspended in HBSS containing 1% fetal bovine serum. An aliquot of the loaded cell suspension was then placed in the cuvette of an Alpha Scan fluorometer and the fluorescence signal was recorded over time, as the cells were alternately excited at 340 nm and 380 nm. Calcium concentration was calculated from the 350/385 nm fluorescence ratio as described by Tsien, et al.(1985).
The T cell lymphoma cell line was loaded with 1 mM fura-2/AM or 1 nM PE3/AM as for Example 3. Afterwards, an aliquot of dye loaded cells were placed in a cuvette and the fluorescense at 360 nm was recorded. Then 5 nM Ni^2+ was added to quench any indicator that was outside the cells. The remainder of the loaded cell suspension was incubated for 1 hour at 37° C. Then a second aliquot was removed, placed in a cuvette together with 5 mM Ni^2+ and fluorescense recorded. The difference in fluorescense of Ni^2+ treated cells between 0 hour time point and the one hour time point represents indicator that leaked out of the cells into the extracellular medium over the 1 hour incubation period.

PTK1 cells = details: cited from earlier work
[8] = test system: calcium transient during mitosis; details: Kao et al.; cited from earlier work
muscle calcium = details: Hollingsworth and Baylor; cited from earlier work
Tradescantia cells = details: within a short time; Hepler and Poenie, unpublished; cited from earlier work
[9] = test system: intracellular [Ca^2+ ] transients; assay: Recorded versus calculated calcium influx; type: cell-based; details: 4 cells
Method: FIG. 13 and FIG. 13A show the relationship between the intracellular [Ca^2+ ] transients over time for fura-2 and FFP18. In Example 7, the relationship between the intracellular [Ca^2+ ] transients reported by FFP18 or fura-2 and calculated [Ca^2+ ] transients representing calcium influx are shown as a function of time. The amount of Ca^2+ entering the cell across the membrane was calculated by integrating the inward current signal and converting the charge to moles of Ca^2+ per cell volume. This [Ca^2+ ] was divided by the average buffering capacity of these cells. […] The [Ca^2+ ] transients reported by the calcium indicators are shown by the more noisy traces.
The amount of Ca^2+ entering the cell across the membrane was calculated by integrating the inward current signal and converting the charge to moles of Ca^2+ per cell volume. This [Ca^2+ ] was divided by the average buffering capacity of these cells. […]
In 4 cells where the [Ca^2+ ] transient was recorded using fura-2, the magnitude of the recorded and calculated increases in [Ca^2+ ] were similar. The ratio of calcium influx measured using fura-2 to the calcium influx calculated from the integral of the current at the 200 msec time point gives a value of 0.9+/-0.05 [nM (recorded)/nM(calculated)].

[10] = test system: leakage and compartmentalization of fura-2; details: cited from earlier work
[11] = pH 6.9, 20° C., read-out: calcium Kd at pH 6.9
[12] = pH 7.3, 20° C., read-out: calcium Kd at pH 7.3

Structure (SMILES): O=C(O)CN(CCOCCOCCN(CC(=O)O)CC(=O)O)CC(=O)O [EGTA, ethylene glycol bis(beta-aminoethyl ether)N,N,N'N'tetraacetic acid]
- Kd ([1]; pH 6.9, 20° C.): 0.594 µM
- Kd ([1]; pH 7, 20° C.): 0.0954 µM

Structure (SMILES): O=C(O)CN1CCN(C(=O)CCc2ccc(N(CC(=O)O)CC(=O)O)c(OCCOc3cc4cc(-c5ncc(C(=O)O)o5)oc4cc3N(CC(=O)O)CC(=O)O)c2)CC1 [PE3]
- fluorescence response at 340 nm to increase in calcium (322 T lymphoma cells [2]; after Concanavalin A): fluorescense at 340 nm increases
- fluorescence response at 380 nm to increase in calcium (322 T lymphoma cells [2]; after Concanavalin A): fluorescense at 380 nm decreases
- fluorescence response at 340 nm and 380 nm (322 T lymphoma cells [2]; after ionomycin): even greater response of the indicator at 340 nm and 380 nm
- fluorescence after reducing free calcium with EGTA (322 T lymphoma cells [2]; digitonin lysed, EGTA added): fluorescense at 380 nm now becomes much brighter while the fluorescense at 340 becomes dim
- Kd ([3]; 20° C.): 4300 µM
- Kd ([3]; 37° C.): 4000 µM
- Kd [4, 11]: 0.269 ± 0.003 µM
- Kd [4, 12]: 0.204 ± 0.004 µM
- Fluorescence Quantum Efficiency, Ca bound ([5]; Ca bound): 0.27
- Peak Absorption Wavelength, Ca bound ([5]; Ca bound): 335 nm
- Peak Emission Wavelength, Ca bound ([5]; Ca bound): 495 nm
- Fluorescence Quantum Efficiency, Free anion ([5]; Free anion): .043
- Peak Absorption Wavelength, Free anion ([5]; Free anion): 364 nm
- Peak Emission Wavelength, Free anion ([5]; Free anion): 508 nm
- absorbance, excitation, emission and quantum efficiency (in words) ([5]; presence and absence of calcium): all typical of fura-2
- calcium binding affinity compared with fura-2 (in words) [6]: somewhat weaker than that of fura-2
- Kd ([6]; 20° C., 100 mM KCl, 10 mM MOPS, pH 7.3 (footnote c)): 0.204 µM
- Kd ([6]; 37° C., 130 mM KCl, 20 mM NaCl, 1 mM free MgCl2, MOPS, pH 7.05 (footnote a)): 0.209 µM
- leakage and compartmentalization (in words) (322 T lymphoma cells [7]): resists leakage and compartmentalization
- apparent baseline intracellular calcium / dye leakage (in words) (322 T lymphoma cells [7]): small change in baseline intracellular calcium levels reflects the lower leakage rate out of the cell

Structure (SMILES): CC(=O)OCOC(=O)CN(CC(=O)OCOC(C)=O)c1ccc(C)cc1OCCOc1cc2cc(-c3ncc(C(=O)OCOC(C)=O)o3)oc2cc1N(CC(=O)OCOC(C)=O)CC(=O)OCOC(C)=O [fura-2/AM]
- loading in cells (in words) (PTK1 cells): consistent failure

Structure (SMILES): Cc1ccc(N(CC(=O)O)CC(=O)O)c(OCCOc2cc3cc(-c4ncc(C(=O)O)o4)oc3cc2N(CC(=O)O)CC(=O)O)c1 [fura-2]
- detection of calcium transient during mitosis [8]: seldom seen
- ability to follow rapid changes in muscle calcium (muscle calcium): not fast enough to follow rapid changes in muscle calcium and was unable to track calcium levels at their peak
- transfer of cytosolic indicator to vacuole (in words) (Tradescantia cells): virtually all of the cytosolic indicator was transferred to the vacuole
- Kd [4, 11]: 0.216 ± 0.004 µM
- Kd [4, 12]: 0.161 ± 0.002 µM
- magnitude of recorded versus calculated increase in [Ca^2+ ] (in words) [9]: similar
- ratio of calcium influx recorded by indicator to calcium influx calculated ([9]; calculated from integral of the current at the 200 msec time point (time point stated for fura-2)): 0.9+/-0.05 nM (recorded)/nM(calculated)
- apparent baseline intracellular calcium / dye leakage (in words) (322 T lymphoma cells [7]): continuous increase in apparent intracellular calcium levels

Structure (SMILES): CCCN(CCC)S(=O)(=O)c1ccc(C(=O)O)cc1 [probenecid]
- effect on leakage and compartmentalization of fura-2 [10]: help reduce leakage and compartmentalization

Structure (SMILES): Cc1ccc(N(CC(=O)O)CC(=O)O)c(OCCOc2cc(-c3c4ccc(=[N+](C)C)cc-4oc4cc(N(C)C)ccc34)ccc2N(CC(=O)O)CC(=O)O)c1 [rhod-2]
- transfer of cytosolic indicator to vacuole (in words) (Tradescantia cells): differed in this respect

Structure (SMILES): O=C1C(CC[S+]([O-])c2ccccc2)C(=O)N(c2ccccc2)N1c1ccccc1 (stereo not shown) [sulfinpyrazone]
- effect on leakage and compartmentalization of fura-2 [10]: help reduce leakage and compartmentalization
